Common to all, as to assay: DTP human tumour cell line panel, 48 h
Assay [1] deals with A498.
Assay [2] concerns HT-29.
Assay [3] deals with OVCAR-3.
The test system of assay [4] is SK-MEL-5.
For assay [5], the system named is COLO 205.
Assay [6] concerns OVCAR-8.
The subject of assay [7] is SN12C.
In assay [8] the test system is CCRF-CEM.
The subject of assay [9] is UACC-62.
Assay [10] deals with SR.
Assay [11] has as its system KM12.
Assay [12] deals with MOLT-4.
For assay [13], the system named is MCF7.
Assay [14] deals with NCI-H460.
The subject of assay [15] is MDA-N.
The test system of assay [16] is RXF 393.
The subject of assay [17] is SF-539.
In assay [18] the test system is M14.
For assay [19], the system named is PC-3.

Molecules are shown by their SMILES.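 1) Cells in 96-well plates. 2) Compound, 48 h, 5 concentrations. 3) Linear interpolation between surrounding doses. 4) Unreached endpoint = highest concentration. GI50 is the concentration that inhibits growth by half.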 Activity calls are given as the source filed them. No stated cut-off is given here; in the data, active = GI50 up to about 1.1 µM and inactive = higher.

`C(=C\c1ccco1)/c1cccc(/C=C/c2ccco2)n1`: the GI50 in assay [1], in assay [2], in [3], in assay [4], in assay [5] and in [6] was > 50 µM (inactive) in each case. In addition, the GI50 (commonly the concentration at which growth is held to half of that of the control) in [7] was > 50 µM (inactive); in assay [8] it was > 50 µM (inactive); in assay [9], > 50 µM (inactive); in [10], 33.6 µM (inactive); in [11], > 50 µM (inactive); in assay [12], > 50 µM (inactive). Also, the GI50 in assay [13] was 0.283 µM (active); in [14], > 50 µM (inactive); in [15], > 50 µM (inactive); in assay [16], > 50 µM (inactive); in [17] it was > 50 µM (inactive); in assay [18], > 50 µM (inactive).
As for `CCOC(=O)c1cc(-c2ccc([N+](=O)[O-])cc2)c([N+](=O)[O-])[nH]1`, the GI50 in assay [2] is 2.69 µM (inactive); in [3] it was 2.7 µM (inactive); in assay [6], 4.24 µM (inactive); in [7] it was > 10 µM (inactive); in [8], 2.6 µM (inactive); in assay [9], 3.03 µM (inactive). Besides, the GI50 was 1.76 µM (inactive) in [10]; 7.19 µM (inactive) in [11]; 3.77 µM (inactive) in assay [12]; 2.26 µM (inactive) in assay [14]; 2.18 µM (inactive) in assay [16]; > 10 µM (inactive) in assay [17]. Moreover, the GI50 in assay [18] was > 10 µM (inactive).
Take `COc1c(-c2nc3ccc(N4CCN(C)CC4)nc3[nH]2)cc(OC)c2[nH]c(COC(C)=O)nc12`: the GI50 in assay [1] was 93.1 µM (inactive); in assay [2], 20.3 µM (inactive); in [4], 16.2 µM (inactive); in assay [5], 28.7 µM (inactive); in assay [6], 50.4 µM (inactive); in assay [7], 20.4 µM (inactive). The GI50 in assay [9] is 47.9 µM (inactive); in [10] it was 3.78 µM (inactive); in assay [11] it was 23.9 µM (inactive); in [13] it was 17.2 µM (inactive); in assay [14] it was 31.6 µM (inactive); in [15] it was 24.7 µM (inactive). In addition, the GI50 in [16] is 21.8 µM (inactive); in assay [17], 14.9 µM (inactive); in [18] it was 19.5 µM (inactive).
Take `CC(Cc1ccc(O)cn1)(NC(=O)c1ccccc1)C(=O)O` (centres undefined): the GI50 in [19], in assay [2], in assay [3], in assay [4], in assay [5] and in assay [6] was > 100 µM (inactive) in each case. Besides, the GI50 in [8], in [9], in [10], in [11], in assay [12] and in assay [14] was > 100 µM (inactive) each time. Further, the GI50 in assay [15], in [16], in assay [17] and in assay [18] was > 100 µM (inactive) throughout.
Turning to `COC1CC(Br)(C#N)C1` (centres undefined), the GI50 in assay [2], in assay [3], in assay [4], in assay [5], in assay [6] and in assay [9] was > 100 µM (inactive) in each case. For the same molecule, the GI50 is > 100 µM (inactive) in [10]; > 100 µM (inactive) in [11]; 52 µM (inactive) in assay [12]; > 100 µM (inactive) in [16]; > 100 µM (inactive) in assay [17]; > 100 µM (inactive) in assay [18].
In the case of `N#CSC1CCCCNC1=O` (centres undefined), the GI50 in [19] is 13.6 µM (inactive); in assay [2], 11.5 µM (inactive); in [3], 11.3 µM (inactive); in assay [5] it was 15.5 µM (inactive); in [6], 14.7 µM (inactive); in assay [7], 14.3 µM (inactive). Also, the GI50 in assay [8] is 5.55 µM (inactive); in assay [9], 12.3 µM (inactive); in [10], 6 µM (inactive); in assay [11] it was 14.1 µM (inactive); in assay [12], 2.48 µM (inactive); in assay [13], 4.07 µM (inactive). Further, the GI50 in assay [14] was 12.5 µM (inactive); in assay [16] it was 13.7 µM (inactive); in [17] it was 12.7 µM (inactive); in [18] it was 16.7 µM (inactive).
Regarding `COc1ccc(N2C(=O)/C(=C\c3cccc(Oc4ccccc4)c3)SC2c2ccccc2)cc1` (centres undefined), the GI50 is > 100 µM (inactive) in assay [1]; 33.9 µM (inactive) in [3]; 27.9 µM (inactive) in [4]; 66.8 µM (inactive) in [5]; 28.6 µM (inactive) in [6]; > 100 µM (inactive) in [7]. For the same molecule, the GI50 in [8] is 5.3 µM (inactive); in assay [9], 50.2 µM (inactive); in assay [10] it was 16.7 µM (inactive); in assay [11] it was 45 µM (inactive); in assay [12] it was 26.7 µM (inactive); in assay [13] it was 29.9 µM (inactive). The GI50 in assay [14] is > 100 µM (inactive); in assay [15], 29.3 µM (inactive); in assay [16], 8.59 µM (inactive); in [17], 24.5 µM (inactive); in [18] it was 49.7 µM (inactive).
Regarding `CC(=O)OC(/C=C/c1ccccc1)=C(OC(C)C)/C1=C(\c2ccccc2)SCCCSC1=O`, the GI50 in [1], in [19], in [2], in assay [3], in assay [4] and in [5] was > 100 µM (inactive) each time. Also, the GI50 in assay [6] is > 100 µM (inactive); in [8] it was 91 µM (inactive); in assay [9], 63 µM (inactive); in assay [11], > 100 µM (inactive); in [12], > 100 µM (inactive); in assay [13], 36 µM (inactive). Further, the GI50 in assay [14] is > 100 µM (inactive); in assay [16] it was 74.3 µM (inactive); in [17] it was > 100 µM (inactive); in assay [18], > 100 µM (inactive).
Take `N#CCCCCC12C3C(=O)N(c4ccccc4)C(=O)C3ON1O[C@@H]1C(=O)N(c3ccccc3)C(=O)[C@@H]12` (some centres undefined): the GI50 in assay [1], in assay [19], in assay [2], in assay [3], in assay [4] and in assay [5] was > 100 µM (inactive) throughout. Also, the GI50 in [6], in assay [7], in [8], in assay [9], in assay [11] and in assay [12] was > 100 µM (inactive) throughout. Further, the GI50 in assay [13], in assay [14], in [15], in assay [17] and in assay [18] was > 100 µM (inactive) throughout.
As to `CC(=O)/C(=C\c1ccccc1O)C(=O)Nc1ccccc1C`, the GI50 is 16.9 µM (inactive) in assay [2]; 25.7 µM (inactive) in [3]; 13.5 µM (inactive) in [4]; 31.7 µM (inactive) in [6]; > 10 µM (inactive) in [7]; 14.3 µM (inactive) in [8]. Besides, the GI50 in assay [9] was 20 µM (inactive); in assay [10], 13.1 µM (inactive); in assay [11], 17.2 µM (inactive); in assay [12] it was 9.84 µM (inactive); in assay [14], 23.7 µM (inactive); in [16], 19.1 µM (inactive). In addition, the figures for the GI50 in assay [17] and in assay [18] were 18.5 µM (inactive) and 17.5 µM (inactive), respectively.
`O=S1(=O)CCCS(=O)(=O)C(c2ccccc2)=C1c1ccccc1`: the GI50 in assay [1] was > 100 µM (inactive); in assay [2] it was 64 µM (inactive); in [3], 36.6 µM (inactive); in [4] it was 52.8 µM (inactive); in assay [6], 91.6 µM (inactive); in assay [7], 29.4 µM (inactive). Further, the GI50 in [8] is 32.1 µM (inactive); in [9], 29 µM (inactive); in [10], 31.6 µM (inactive); in [11], 24.7 µM (inactive); in assay [12], 36.2 µM (inactive); in assay [14] it was 47.3 µM (inactive). In addition, the GI50 in assay [17] was > 100 µM (inactive); in assay [18], 26.9 µM (inactive).
Regarding `CCCCCC(=O)OCC1(CO)C/C(=C/CC(C(C)C)C(C)C)C(=O)O1` (centres undefined), the GI50 in assay [1] is > 75 µM (inactive); in assay [19], 63.5 µM (inactive); in assay [2], 38.6 µM (inactive); in [3] it was 50 µM (inactive); in assay [4] it was 48.8 µM (inactive); in [5], 26.5 µM (inactive). For the same molecule, the GI50 in [6] was 21.9 µM (inactive); in assay [7], 30.5 µM (inactive); in assay [8], 16.1 µM (inactive); in assay [9], > 75 µM (inactive); in [11], 13.5 µM (inactive); in assay [13], 40.9 µM (inactive). Moreover, the GI50 in assay [14] is 24.8 µM (inactive); in [15], 34 µM (inactive); in assay [16] it was > 75 µM (inactive).
Turning to `Cc1cccc2nc3cc(O)cc(O)c3c(O)c12`, the GI50 in assay [19], in [2], in assay [3], in assay [4], in assay [5] and in [6] was > 10 µM (inactive) each time. Moreover, the GI50 in assay [7] was > 10 µM (inactive); in assay [8], > 10 µM (inactive); in assay [9], 6.49 µM (inactive); in assay [11], > 10 µM (inactive); in assay [12], > 10 µM (inactive); in [14], > 10 µM (inactive). Also, the GI50 in assay [15], in assay [16], in assay [17] and in [18] was > 10 µM (inactive) in each case.

Values taken from ChEMBL document CHEMBL1201862, “PubChem BioAssay data set” (2004).
